Experiment in all cases: NCI anticancer screen, dose series, 48 h
The subject of test [1] is OVCAR-3 ovarian.
Test [2] has as its system SR leukemia.
Test [3] deals with SF-539 CNS.
The test system of test [4] is OVCAR-8 ovarian.
Test [5] concerns M14 melanoma.
Test [6] deals with OVCAR-4 ovarian.
The test system of test [7] is ACHN renal.
The subject of test [8] is UACC-257 melanoma.
The test system of test [9] is UACC-62 melanoma.

Structures are written as SMILES.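 Grown in 96-well plates, cells were treated for 48 hours with each compound at five concentrations. Insufficient inhibition: endpoint recorded as highest concentration tested. At the GI50, growth is halved. At the TGI there is no net growth.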 Where only a bound is given, the exact number is not on record here.

Turning to `OCCN1CCCN(CCCN2c3ccccc3Sc3ccc(C(F)(F)F)cc32)CC1`, the GI50 in test [1] is 3.84 µM; in test [2], 2.18 µM; in test [3], 1.67 µM; in test [4], 3.46 µM; in [5], 1.97 µM; in test [6], 3.11 µM. Moreover, the GI50 was 3.56 µM in [7] and 1.94 µM in test [8]. The TGI in test [1] amounted to 13.9 µM; in test [2] it was 4.75 µM; in test [3], 3.12 µM; in test [4], 12.2 µM; in [5] it was 3.9 µM; in test [6] it was 13.4 µM. Also, the results for the TGI in test [7] and in test [8] were 13.4 µM and 3.65 µM, respectively.

In the case of `O=C(NCCOC(=O)CCCCCCCCC(=O)OCCNC(=O)NC(=O)c1cn(Cc2ccccc2)c(=O)[nH]c1=O)NC(=O)c1cn(Cc2ccccc2)c(=O)[nH]c1=O`, the TGI in test [9], in test [1], in test [2], in test [3], in test [4] and in test [5] was more than 100 µM throughout. For the same molecule, the TGI in test [6], in [7] and in test [8] was more than 100 µM each time.

In the case of `COc1cc2c(c(OC)c1OC)-c1ccc(SC)c(=O)cc1C(CC(=O)Oc1ccccc1F)C2` (stereo unspecified), the TGI in [9] was 0.0688 µM; in [1], 0.0272 µM; in test [2] it was more than 7.5 µM; in test [4] it was more than 7.5 µM; in [5] it was 0.908 µM; in test [6], more than 7.5 µM. In [7], this molecule displayed a TGI of more than 7.5 µM.

Regarding `O=c1ccc(=O)c2c1c1[nH]c3ccccc3c1c1c(=O)c3ccccc3c(=O)c21`, the TGI in test [9], in test [1], in test [2], in test [3], in test [4] and in test [5] was more than 10 µM throughout. Further, the TGI in test [6], in [7] and in test [8] was more than 10 µM each time.

`O=[N+]([O-])/C(=C/C=C/c1ccccc1)c1ccccc1`: the GI50 in test [9] was 1.55 µM; in test [1], 1.85 µM; in test [2] it was 1.01 µM; in test [3] it was 1.86 µM; in test [4], 3.27 µM; in [5], 2.02 µM. In addition, the figures for the GI50 in test [6], in test [7] and in test [8] were 2.47 µM, 2.14 µM and 2.74 µM, respectively. For the same molecule, the TGI in [9] turned out to be 3.1 µM; in test [1], 3.29 µM; in test [2] it was 4.05 µM; in test [3], 3.61 µM; in test [4], 11.2 µM; in test [5], 5.31 µM. The TGI worked out at 7.22 µM in [6], 5 µM in test [7] and 9.32 µM in test [8].

On to `Cc1ncc([N+](=O)[O-])n1CCOc1ccc(C(=O)/C=C/c2ccc(C(F)(F)F)cc2)cc1`, for which the GI50 in [9] was 4.73 µM; in test [1] it was 2.37 µM; in test [2], 1.97 µM; in test [3], 1.65 µM; in test [4], 2.09 µM; in test [5] it was 3.85 µM. Besides, the GI50 is 2.99 µM in test [6], 2.77 µM in test [7] and 3.6 µM in test [8]. Further, the TGI stood at 17.6 µM in test [9]; 5.7 µM in [1]; 5.5 µM in [2]; 3.07 µM in test [3]; 5.57 µM in [4]; 14.8 µM in test [5]. The TGI in test [6] was determined as 14.6 µM; in [7], 9.14 µM; in test [8] it was 16.5 µM.

As for `Cc1cc2nc3c(C(OC4OC(CO)C(O)C(O)C4O)C(O)CO)nn(-c4ccc(F)cc4)c3nc2cc1C` (stereo unspecified), the TGI in test [9], in test [1], in [2], in test [3], in test [4] and in [5] was more than 100 µM in each case. Further, the TGI in test [6], in [7] and in test [8] was more than 100 µM each time.

With `O=C(NCCNC1=CC(=O)c2nc3ccccc3c3ccnc1c23)c1cnccn1`, the GI50 was 73.7 µM in test [9]; 2.42 µM in [1]; 9.26 µM in test [2]; 51.5 µM in test [3]; 24.3 µM in [4]; 40.8 µM in [5]. Moreover, the GI50 in test [6] is 83.7 µM; in [7], 32.4 µM; in [8], 49.3 µM. For the same molecule, the TGI is more than 100 µM in test [9]; 19.1 µM in [1]; more than 100 µM in test [2]; more than 100 µM in [3]; more than 100 µM in [4]; more than 100 µM in test [5]. The TGI in [6], in [7] and in test [8] was more than 100 µM in each case.

Take `COc1ccc(S(=O)(=O)NNS(C)(=O)=O)cc1OC`: the TGI in test [9], in test [2], in test [3], in test [4], in test [5] and in test [6] was more than 100 µM each time. The TGI in test [7] and in test [8] was more than 100 µM throughout.

In the case of `Cc1ccc(-n2cc(/C(N)=N/O)c3ccccc3c2=O)cc1`, the TGI in [9], in test [1], in test [2], in test [3], in [4] and in test [5] was more than 100 µM each time. In addition, the TGI in test [7] and in test [8] was more than 100 µM throughout.

As to `C#CCN(CCCOc1ccc(Cl)cc1Cl)CCCSC(=O)CCCCCN1/C(=C\C=C2/CCCC(/C=C/C3=[N+](CCCCCC(=O)[O-])c4ccccc4C3(C)C)=C2Cl)C(C)(C)c2ccccc21`, the GI50 in [9] was 1.15 µM; in test [1], 1.45 µM; in [3], 1.2 µM; in test [4], 1.99 µM; in test [5] it was 1.61 µM; in test [6], 2.02 µM. The GI50 in test [7] is 2.65 µM; in test [8] it was 1.8 µM. Besides, the TGI in test [9] was 3.14 µM; in [1], 3.31 µM; in test [3] it was 2.71 µM; in test [4], 6.83 µM; in [5], 3.36 µM; in [6], 6.72 µM. Besides, the TGI in [7] is 7.5 µM; in [8] it was 4.03 µM.

On to `O=C(/C=N/O)Nc1cccc(Cl)c1I`, for which the TGI in [9], in test [1], in test [2], in [4], in test [5] and in [6] was more than 100 µM throughout. Moreover, the TGI in test [7] and in test [8] was more than 100 µM each time.

For `CC[C@]1(O)C[C@@H]2CN(CCc3c([nH]c4ccccc34)[C@@](C(=O)OC)(c3cc4c(cc3OC)N(C)[C@H]3[C@@](O)(C(=O)OC)[C@H](OC(=O)CCCBr)[C@]5(CC)C=CCN6CC[C@]43[C@@H]65)C2)C1`, the GI50 was less than 0.01 µM in [9]; less than 0.01 µM in test [1]; less than 0.01 µM in [2]; less than 0.0209 µM in test [4]; 0.0543 µM in [5]; 0.108 µM in test [7]. The GI50 in test [8] was 3.27 µM. Besides, the TGI in test [9] was more than 100 µM; in test [1], less than 0.0126 µM; in test [2] it was more than 100 µM; in [4] it was more than 100 µM; in test [5] it was 25.9 µM; in [6], 33.5 µM. Moreover, the TGI in [7] and in [8] was more than 100 µM each time.

Take `O=C(/C=C/c1ccccn1)c1ccccc1`: the GI50 in test [9] is 2.33 µM; in test [1], 9.5 µM; in test [2] it was 1.96 µM; in test [3] it was 4.37 µM; in test [4], 4.18 µM; in [6] it was 5.06 µM. The GI50 was 2.44 µM in [7] and 2.68 µM in test [8]. Moreover, the TGI came out at 7 µM in [9]; 21.4 µM in test [1]; 14.1 µM in [2]; 18.3 µM in test [3]; 16.1 µM in test [4]; 18.3 µM in test [6]. Besides, the TGI worked out at 6.2 µM in [7] and 9.25 µM in test [8].

`CNC(=O)N(CCCCC(NC(C)=O)C(=O)NCc1ccccc1)Cc1ccccc1` (stereo unspecified): the TGI in test [9], in [1], in test [3], in [4], in test [5] and in [6] was more than 100 µM throughout. Besides, the TGI in test [7] and in test [8] was more than 100 µM each time.

Take `c1ccc2c(c1)n1nnnc1c1nnnn21`: the TGI in test [9], in test [1], in test [3], in [4], in [5] and in test [6] was more than 100 µM throughout. Besides, the TGI in test [7] and in [8] was more than 100 µM in each case.

As for `O=C(N[C@H]1CC2(C=C(I)C(=O)C(I)=C2)OC1=O)OCc1ccccc1`, the TGI in test [9] came out at 30.2 µM; in test [1], 31.3 µM; in [3], 32 µM; in [4], 31.3 µM; in test [5], 31.2 µM; in [6], 33.5 µM. Further, the TGI in [7] came out at 32.8 µM; in test [8], 32.4 µM.

As to `COc1ccc(N=C2C(=O)Nc3ccc(Br)cc32)cc1`, the TGI in test [9] worked out at 19.9 µM; in [1] it was 62.4 µM; in test [2] it was 28.6 µM; in [3], 35.8 µM; in test [4], 32.2 µM; in test [5] it was 37.2 µM. Besides, the TGI in test [7] was 38.6 µM; in test [8], 48.1 µM.

Regarding `COc1cc(-c2ccc[nH]2)[nH]c1/C=C1\N=C(C)C(C(=O)NC(C)C)=C1C`, the GI50 was 2.68 µM in test [9]; 3.03 µM in [1]; 2.17 µM in [2]; 5.47 µM in test [3]; 3.43 µM in test [4]; 1.97 µM in test [5]. For the same molecule, the results for the GI50 in test [7] and in test [8] were 3.59 µM and 2.54 µM, respectively. The TGI came out at 6.77 µM in [9]; 14.2 µM in test [1]; 7.87 µM in test [2]; 20.2 µM in [3]; 13.5 µM in [4]; 4.4 µM in test [5]. The TGI turned out to be 13.3 µM in test [7] and 6.42 µM in test [8].

For the molecule `Nc1nc2c([nH]1)c1[nH]c3ccccc3c1c1[nH]c3ccccc3c21`, the GI50 in [9] is 15.9 µM; in test [1] it was 12.6 µM; in test [3], 12.8 µM; in test [4] it was 4.56 µM; in [5], 14.4 µM; in [6], 15.4 µM. Further, the GI50 is 12 µM in test [7] and 18.5 µM in [8]. In addition, the TGI came out at 30 µM in test [9]; 25.7 µM in test [1]; 25.6 µM in [3]; 23.7 µM in test [4]; 27.8 µM in test [5]; 35.3 µM in test [6]. For the same molecule, the values for the TGI in [7] and in [8] were 24.4 µM and 33.4 µM, respectively.

Consider `N#CC(C#N)=C/C=C/c1ccccc1[N+](=O)[O-]`, for which the TGI in test [9] is 9.39 µM; in [1], more than 10 µM; in test [2], more than 10 µM; in test [3], more than 10 µM; in [4], 3.75 µM; in test [6], more than 10 µM. Further, the TGI in [7] and in test [8] was more than 10 µM in each case.

`COc1cc(C(=O)Nc2ccc(-c3nc4ccccc4[nH]3)cc2)cc(OC)c1OC`: the GI50 is 9.89 µM in [9]; 12.4 µM in test [1]; 6.92 µM in test [2]; 11.6 µM in test [3]; 7.53 µM in [4]; 11.8 µM in test [6]. For the same molecule, the GI50 in test [7] is 8.23 µM; in test [8], 17.8 µM. The TGI in [9] worked out at 24.4 µM; in [1], 27.9 µM; in [2] it was 40.9 µM; in test [3], 27.9 µM; in test [4] it was 28.5 µM; in test [6], 36.9 µM. For the same molecule, the TGI in [7] came out at 23.1 µM; in test [8] it was 38.9 µM.

As for `CC(=O)Nc1ccc2c(c1)[nH]c(=O)c1cc(Cl)ccc12`, the TGI was more than 100 µM in test [9]; 18.4 µM in test [2]; more than 100 µM in [3]; 64.9 µM in [4]; more than 100 µM in test [5]; more than 100 µM in test [6]. The TGI in test [7] was more than 100 µM; in test [8] it was 59.5 µM.

The values are drawn from PubChem BioAssay (NCI).
